Biological target: HSP90 (Homo sapiens, UniProt P07900)
Assay: HSP90 inhibition (HSP90 IC50)
Format: biochemical

Compound	IC50 [nM]
COC(=O)[C@@H](NC(=O)c1ccc(N2C3CCC2CC(NC(=O)c2cccc(OC)c2C)C3)nc1)c1ccc(OC)cc1 (stereo partly drawn)	1000 to 2000
CC(C)C(=O)c1ccc(N2[C@@H]3CC[C@H]2C[C@@H](NC(=O)c2ccc(C(N)=O)c(NCC4CC4)c2)C3)nc1	1000 to 2000
2-((cyclopropylmethyl)amino]-N4-{8- [5-({[(3R)-1-(1-methylethyl)pyrrolidin- 3-yl]amino}carbonyl)pyridin-2-yl]-8- azabicyclo[3.2.1]oct-3-endo- yl}benzene-1,4-dicarboxamide	< 500
Cc1cc(C(=O)N[C@H]2C[C@H]3CC[C@@H](C2)N3c2ccc(C(=O)NC3CCN(C)CC3)cn2)c(C)cc1C(N)=O [2,5-dimethyl-N-[8-(5-{[(1-methylpiperidin-4-yl)amino]carbonyl}pyridin-2-yl)-8-azabicyclo[3.2.1]oct-3-endo-yl]benzene-1,4-dicarboxamide]	500 to 999
Cc1cc(C(=O)N[C@H]2C[C@H]3CC[C@@H](C2)N3c2ccc(C(=O)NCc3ccccc3)cn2)c(C)cc1C(N)=O [2,5-dimethyl-N-[8-(5-{[(phenylmethyl)amino]carbonyl}pyridin-2-yl)-8-azabicyclo[3.2.1]oct-3-endo-yl]benzene-1,4-dicarboxamide]	< 500
Cc1cc(C(=O)N[C@H]2C[C@H]3CC[C@@H](C2)N3c2ccc(C(=O)NC3CN(C(C)C)C3)cn2)c(C)cc1C(N)=O [2,5-dimethyl-N-{8-[5-({[1-(1-methylethyl)azetidin-3-yl]amino}carbonyl)pyridin-2-yl]-8-azabicyclo[3.2.1]oct-3-endo-yl}benzene-1,4-dicarboxamide]	< 500
Cc1cc(C(=O)NC2CC3CCC(C2)N3c2ccc(C(=O)N[C@@H]3CCCN(C(C)C)C3)cn2)c(C)cc1C(N)=O (stereo partly drawn) [2,5-dimethyl-N-{8-[5-({[(3R)-1-(1-methylethyl)piperidin-3-yl]amino}carbonyl)pyridin-2-yl]-8-azabicyclo[3.2.1]oct-3-endo-yl}benzene-1,4-dicarboxamide]	< 500
Cc1cc(C(=O)N[C@H]2C[C@H]3CC[C@@H](C2)N3c2ccc(C(=O)N[C@@H]3CCN(C(C)C)C3)cn2)c(C)cc1C(N)=O [2,5-dimethyl-N-{8-[5-({[(3R)-1-(1-methylethyl)pyrrolidin-3-yl]amino}carbonyl)pyridin-2-yl]-8-azabicyclo[3.2.1]oct-3-endo-yl}benzene-1,4-dicarboxamide]	< 500
Cc1cc(C(=O)NC2CC3CCC(C2)N3c2ccc(C(=O)N[C@@H]3CCCN(C)C3)cn2)c(C)cc1C(N)=O (stereo partly drawn) [2,5-dimethyl-N-{8-[5-({[(3R)-1-methylpiperidin-3-yl]amino}carbonyl)pyridin-2-yl]-8-azabicyclo[3.2.1]oct-3-endo-yl}benzene-1,4-dicarboxamide]	< 500
Cc1cc(C(=O)NC2CC3CCC(C2)N3c2ccc(C(=O)N[C@@H]3CCN(C)C3)cn2)c(C)cc1C(N)=O (stereo partly drawn) [2,5-dimethyl-N-{8-[5-({[(3R)-1-methylpyrrolidin-3-yl]amino}carbonyl)pyridin-2-yl]-8-azabicyclo[3.2.1]oct-3-endo-yl}benzene-1,4-dicarboxamide]	500 to 999
Cc1cc(C(=O)NC2CC3CCC(C2)N3c2ccc(C(=O)N[C@H]3CCCN(C(C)C)C3)cn2)c(C)cc1C(N)=O (stereo partly drawn) [2,5-dimethyl-N-{8-[5-({[(3S)-1-(1-methylethyl)piperidin-3-yl]amino}carbonyl)pyridin-2-yl]-8-azabacyclo[3.2.1]oct-3-endo-yl}benzene-1,4-dicarboxamide]	500 to 999
Cc1cc(C(=O)N[C@H]2C[C@H]3CC[C@@H](C2)N3c2ccc(C(=O)N[C@H]3CCN(C(C)C)C3)cn2)c(C)cc1C(N)=O [2,5-dimethyl-N-{8-[5-({[(3S)-1-(1-methylethyl)pyrrolidin-3-yl]amino}carbonyl)pyridin-2-yl]-8-azabicyclo[3.2.1]oct-3-endo-yl}benzene-1,4-dicarboxamide]	< 500
Cc1cc(C(=O)NC2CC3CCC(C2)N3c2ccc(C(=O)N[C@H]3CCCN(C)C3)cn2)c(C)cc1C(N)=O (stereo partly drawn) [2,5-dimethyl-N-{8-[5-({[(3S)-1-methylpiperidin-3-yl]amino}carbonyl)pyridin-2-yl]-8-azabicyclo[3.2.1]oct-3-endo-yl}benzene-1,4-dicarboxamide]	< 500
Cc1cc(C(=O)NC2CC3CCC(C2)N3c2ccc(C(=O)N[C@H]3CCN(C)C3)cn2)c(C)cc1C(N)=O (stereo partly drawn) [2,5-dimethyl-N-{8-[5-({[(3S)-1-methylpyrrolidin-3-yl]amino}carbonyl)pyridin-2-yl]-8-azabicyclo[3.2.1]oct-3-endo-yl}benzene-1,4-dicarboxamide]	< 500
Cc1cc(C(=O)N[C@H]2C[C@H]3CC[C@@H](C2)N3c2ccc(C(=O)NC3CCN(C(C)C)CC3)cn2)c(C)cc1C(N)=O [2,5-dimethy˜-N-{8-[5-({[1-(1 methylethyl)piperidin-4-yl]amino}carbonyl)pyridin-2-yl]-8-azabicyclo[3.2.1]oct-3-endo-yl}benzene-1,4-dicarboxamide]	500 to 999

Second part, the compound after the results:

IC50 [nM]	Compound
< 500	COc1cccc(C(=O)NC2CC3CCC(C2)N3c2ccc(C(=O)NCC3CCNC3)cn2)c1C (stereo not drawn)
< 500	COc1cccc(C(=O)N[C@H]2C[C@H]3CC[C@@H](C2)N3c2ccc(C(=O)NCc3ccc(N4CCN(C)CC4)cc3)cn2)c1C
< 500	COc1ccc([C@H](C)NC(=O)c2ccc(N3C4CCC3CC(NC(=O)c3cccc(OC)c3C)C4)nc2)cc1 (stereo partly drawn)
< 500	COc1cccc(C(=O)NC2CC3CCC(C2)N3c2ccc(C(=O)NC(C)c3ccccc3)cn2)c1C (stereo not drawn)
< 500	COc1ccc(Nc2cc(C(=O)N[C@H]3C[C@H]4CC[C@@H](C3)N4c3ccc(C(=O)NC4CCCC4)cn3)ccc2C(N)=O)cc1OCCN(C)C
< 500	C[C@H](NC(=O)c1ccc(N2C3CCC2CC(NC(=O)c2ccc(C(N)=O)c(Nc4ccncc4)c2)C3)nc1)c1ccc(N2CCN(C)CC2)cc1 (stereo partly drawn)
< 500	CCC(CC)Nc1cc(C(=O)N[C@H]2C[C@H]3CC[C@@H](C2)N3c2ccc(C(C)=O)cn2)c(C)cc1C(N)=O
< 500	NC(=O)c1ccc(C(=O)N[C@H]2C[C@H]3CC[C@@H](C2)N3c2ccc(C(=O)C3CC3)cn2)cc1NC1CCCC1
< 500	CCC(C)Oc1cc(C(=O)N[C@H]2C[C@H]3CC[C@@H](C2)N3c2ccc(C(=O)C3CC3)cn2)c(C)cc1C(N)=O (stereo partly drawn)
< 500	NC(=O)c1cc(Cl)c(C(=O)N[C@H]2C[C@H]3CC[C@@H](C2)N3c2ccc(C(=O)NCc3ccccc3)cn2)cc1Cl [2,5-dichloro-N-[8-(5-{[(phenylmethyl)amino]carbonyl}pyridin-2-yl)-8-azabicyclo[3.2.1]oct-3-endo-yl]benzene-1,4-dicarboxamide]
< 500	Cc1cc(C(=O)NC2CC3CCC(C2)N3c2ccc(C(=O)N[C@@H](C)c3ccc(N4CCN(C)CC4)cc3)cn2)c(C)cc1C(N)=O (stereo partly drawn) [2,5-dimethyl-N-(8-{5-[({(1S)-1-[4-(4-methylpiperazin-1-yl)phenyl]ethyl}amino)carbonyl]pyridin-2-yl}-8-azabicyclo[3.2.1]oct-3-endo-yl)benzene-1,4-dicarboxamide]
< 500	Cc1cc(C(=O)N[C@H]2C[C@H]3CC[C@@H](C2)N3c2ccc(C(=O)NC3CN(C)C3)cn2)c(C)cc1C(N)=O [2,5-dimethyl-N-[8-(5-{[(1-methylazetidin-3-yl)amino]carbonyl}pyridin-2-yl)-8-azabicyclo[3.2.1]oct-3-endo-yl]benzene-1,4-dicarboxamide]

— patent publication US8012956B2, “Tropane compounds” (Exelixis, Inc., priority 2007, dated 2011)
